According to publication PMC12655172, “Borylated 5-Membered Ring Iminosugars: Synthesis and Biological Evaluation for Glycosidase Inhibition and Anticancer Properties for Application in Boron Neutron Capture Therapy (BNCT)—Part 2” (Pharmaceuticals, 2025):

Tests used:
Type in all cases: biochemical
[1] = test system: α-D-glucosidase (human lysosome); assay: Glycosidase inhibition (Table 2 panel); settings: at 100 μM
[2] = target: T1, β-D-galactosidase (bovine liver) (Bos taurus, UniProt F1MNT6); assay: Glycosidase inhibition (Table 2 panel)
T1 sequence (F1MNT6 1-469): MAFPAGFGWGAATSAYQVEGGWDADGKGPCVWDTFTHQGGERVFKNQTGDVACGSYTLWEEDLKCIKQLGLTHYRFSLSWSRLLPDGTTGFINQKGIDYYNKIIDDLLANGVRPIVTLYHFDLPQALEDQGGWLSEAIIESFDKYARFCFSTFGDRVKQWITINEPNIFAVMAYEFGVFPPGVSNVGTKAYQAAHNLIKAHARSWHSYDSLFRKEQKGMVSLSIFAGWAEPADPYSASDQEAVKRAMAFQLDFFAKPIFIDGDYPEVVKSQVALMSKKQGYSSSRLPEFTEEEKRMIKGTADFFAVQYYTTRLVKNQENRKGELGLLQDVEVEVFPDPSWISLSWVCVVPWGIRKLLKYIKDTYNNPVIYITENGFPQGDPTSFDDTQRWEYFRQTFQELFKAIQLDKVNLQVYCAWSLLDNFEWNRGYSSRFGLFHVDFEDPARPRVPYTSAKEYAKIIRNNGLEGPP
Method in brief: (§1)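 Absorbance at 400 nm quantified para-nitrophenol liberated from […] para-nitrophenyl glycoside substrate, at the optimal pH for each enzyme […]. Na2CO3 […] terminated the reactions.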

[3] = test system: α-D-glucosidase (rat intestinal maltase); assay: Glycosidase inhibition (Table 2 panel)
[4] = test system: T2, trehalase (porcine kidney); assay: Glycosidase inhibition (Table 2 panel)
T2 construct: purchased Sigma-Aldrich; host or cells: porcine kidney

[5] = test system: T3, α-L-fucosidase (bovine kidney); assay: Glycosidase inhibition (Table 2 panel); settings: at 1000 μM
T3 construct: purchased Sigma-Aldrich; host or cells: bovine kidney
Method in brief: as §1

α-D-glucosidase (rice) = α-D-glucosidase (rice) (Oryza sativa subsp. japonica, UniProt Q653V7); assay: Glycosidase inhibition (Table 2 panel)
[6] = test system: T4, α-D-mannosidase (Jack bean); assay: Glycosidase inhibition (Table 2 panel)
T4 construct: purchased Sigma-Aldrich; host or cells: Jack bean
Method in brief: as §1

β-D-glucosidase (almond) = assay: Glycosidase inhibition (Table 2 panel)
Method in brief: as §1

[7] = test system: α-L-rhamnosidase (P. decumbens); assay: Glycosidase inhibition (Table 2 panel)
Method in brief: as §1

[8] = target: T5, β-D-glucosidase (bovine liver) (Bos taurus, UniProt F1MNT6); assay: Glycosidase inhibition (Table 2 panel)
T5 sequence (F1MNT6 1-469): T1 sequence (F1MNT6 1-469)
Method in brief: as §1

[9] = test system: N-acetyl-β-D-hexosaminidase (rat intestine); assay: Glycosidase inhibition (Table 3 panel); settings: 1 mg/mL aqueous solution; run in water
Method in brief: (§2)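 Each glycosidase received […] para-nitrophenyl substrate in citrate/phosphate buffer at its optimum pH plus 1 mg/mL extract solution, at 27 °C. After stopping with glycine (pH 10.4) during the exponential phase, 405 nm absorbance was read; values are means of three replicates.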

[10] = test system: α-D-glucosidase (rat intestine); assay: Glycosidase inhibition (Table 3 panel); settings: 1 mg/mL aqueous solution; run in water
Method in brief: as §2

[11] = test system: T6, β-D-glucuronidase (E. coli); assay: Glycosidase inhibition (Table 2 panel)
T6 construct: purchased Sigma-Aldrich
Text: (§3) The enzymes α-D-glucosidase (yeast), β-D-glucosidases (almond, bovine liver), α-D-galactosidase (coffee beans), β-D-galactosidase (bovine liver), α-D-mannosidase (Jack bean), β-D-mannosidase (snail), α-L-rhamnosidase (P. decumbens), α-L-fucosidase (bovine kidney), trehalase (porcine kidney), β-D-glucuronidases (E. coli, bovine liver), amyloglucosidase (A. niger), para-nitrophenyl glycosides, and various disaccharides were purchased from Sigma-Aldrich Co (St. Louis, MO, USA).
(§4) Brush border membranes were prepared from the rat small intestine according to the method of Kessler et al., and were assayed at pH 6.8 for rat intestinal maltase using maltose. […] The reaction was stopped by heating at 100 °C for 3 min. After centrifugation (600 g; 10 min), the resulting reaction mixture was added to the Glucose CII-test Wako (Wako Pure Chemical Ind., Osaka, Japan). […] Other glycosidase activities were determined using an appropriate para-nitrophenyl glycoside as substrate at the optimum pH of each enzyme. The reaction mixture contained the substrate ([…]) and the appropriate amount of enzyme. The reaction was stopped by the addition of Na2CO3 (400 μM). The released para-nitrophenol was measured spectrometrically at 400 nm. All reactions were run in methanol.

[12] = test system: T7, amyloglucosidase (A. niger); assay: Glycosidase inhibition (Table 2 panel)
T7 construct: purchased Sigma-Aldrich
Text: as §3, §4

α-D-glucosidase (yeast) = target: T8, α-D-glucosidase (yeast) (Saccharomyces cerevisiae, UniProt P53341); assay: Glycosidase inhibition (Table 2 panel); settings: read-out: inhibition % α-D-Glucosidase Yeast
T8 construct: purchased Sigma-Aldrich
Text: as §3, §4

[13] = test system: β-D-galactosidase (E. coli); assay: Glycosidase inhibition (Table 2 panel); settings: at 100 μM
[14] = test system: β-D-glucanase (T. Longibrachiatum); assay: Glycosidase inhibition (Table 2 panel); settings: at 100 μM
[15] = test system: β-D-glucosidase (human lysosome); assay: Glycosidase inhibition (Table 2 panel); settings: at 100 μM
[16] = listed as of the 1000 μM series

Chain of α-D-glucosidase (rice) (Q653V7 34-885): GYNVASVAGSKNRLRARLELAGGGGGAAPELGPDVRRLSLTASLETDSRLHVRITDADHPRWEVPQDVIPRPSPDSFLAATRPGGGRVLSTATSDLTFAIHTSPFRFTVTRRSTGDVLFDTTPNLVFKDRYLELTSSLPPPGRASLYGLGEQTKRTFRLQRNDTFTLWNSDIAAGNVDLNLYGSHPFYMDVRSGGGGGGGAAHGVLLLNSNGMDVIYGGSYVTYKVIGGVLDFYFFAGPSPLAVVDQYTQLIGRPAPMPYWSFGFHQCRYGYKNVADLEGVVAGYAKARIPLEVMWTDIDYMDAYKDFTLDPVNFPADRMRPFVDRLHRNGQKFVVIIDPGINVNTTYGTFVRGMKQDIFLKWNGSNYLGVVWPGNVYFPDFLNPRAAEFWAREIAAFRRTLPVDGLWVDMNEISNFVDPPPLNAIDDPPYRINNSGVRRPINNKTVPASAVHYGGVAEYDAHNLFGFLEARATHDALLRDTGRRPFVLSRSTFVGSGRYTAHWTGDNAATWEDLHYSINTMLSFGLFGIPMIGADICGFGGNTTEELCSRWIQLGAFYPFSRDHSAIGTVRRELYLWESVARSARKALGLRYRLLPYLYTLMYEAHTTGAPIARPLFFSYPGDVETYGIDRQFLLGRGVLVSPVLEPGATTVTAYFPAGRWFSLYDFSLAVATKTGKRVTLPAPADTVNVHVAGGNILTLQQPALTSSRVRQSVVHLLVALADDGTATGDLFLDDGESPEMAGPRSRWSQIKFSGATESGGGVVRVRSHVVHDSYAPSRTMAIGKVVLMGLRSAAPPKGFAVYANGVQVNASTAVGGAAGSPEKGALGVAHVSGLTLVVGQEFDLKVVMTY
T8 sequence (P53341 whole entry): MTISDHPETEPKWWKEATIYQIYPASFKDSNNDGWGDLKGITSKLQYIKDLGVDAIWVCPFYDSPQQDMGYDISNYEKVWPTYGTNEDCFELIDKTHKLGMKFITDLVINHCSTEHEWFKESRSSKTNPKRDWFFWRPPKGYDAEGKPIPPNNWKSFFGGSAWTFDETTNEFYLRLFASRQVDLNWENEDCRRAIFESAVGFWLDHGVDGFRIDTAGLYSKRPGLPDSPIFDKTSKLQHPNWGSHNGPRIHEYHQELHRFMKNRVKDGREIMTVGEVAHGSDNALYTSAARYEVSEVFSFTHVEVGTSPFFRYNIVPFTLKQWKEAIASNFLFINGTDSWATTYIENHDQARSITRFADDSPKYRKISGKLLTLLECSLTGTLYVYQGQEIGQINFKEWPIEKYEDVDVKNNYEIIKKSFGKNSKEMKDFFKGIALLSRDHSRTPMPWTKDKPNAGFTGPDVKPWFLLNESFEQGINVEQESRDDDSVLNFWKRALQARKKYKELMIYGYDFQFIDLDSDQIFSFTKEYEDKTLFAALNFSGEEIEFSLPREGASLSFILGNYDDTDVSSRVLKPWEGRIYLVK

Structure (SMILES)	inhibition % α-D-Glucosidase Human Lysosome [1]	inhibition % α-D-Glucosidase Rat Intestinal Maltase ([3]; at 100 μM)	inhibition % Trehalase Porcine Kidney ([4]; at 100 μM)	inhibition % Trehalase Porcine Kidney ([4]; at 1000 μM)	inhibition % α-L-Fucosidase Bovine Kidney [5]	inhibition at 100 µM (α-D-glucosidase (rice))	inhibition % α-D-Mannosidase Jack Bean ([6]; at 100 μM)	inhibition % α-D-Mannosidase Jack Bean ([6]; at 1000 μM)	inhibition % β-D-Glucosidase Almond (β-D-glucosidase (almond); at 100 μM)	inhibition % β-D-Glucosidase Almond (β-D-glucosidase (almond); at 1000 μM)	inhibition % α-L-Rhamnosidase P. decumbens ([7]; at 100 μM)	inhibition at 100 µM [8]	inhibition at 1000 µM [8]	Percentage inhibition N-Acetyl-β-D-Hexosaminidase Rat Intestine [9]	Percentage inhibition α-D-Glucosidase Rat Intestine [10]	inhibition % β-D-Glucuronidase E. coli ([11]; at 100 μM)	inhibition % β-D-Glucuronidase E. coli ([11]; at 1000 μM)	inhibition % Amyloglucosidase A. niger ([12]; at 100 μM)	inhibition % Amyloglucosidase A. niger ([12]; at 1000 μM)	inhibition at 100 µM (α-D-glucosidase (yeast))	also measured
OC[C@H](O)[C@@H]1[C@H](O)[C@H](O)CN1Cc1cccc(B(O)O)c1 [meta 4, N-(3-Methylphenylboronic acid)-1,4-dideoxy-1,4-imino-L-gulitol]	^cNI ^d(7.2%)	^cNI ^d(22.8%)	^cNI ^d(0.8%)	^aNI ^b(3.4%)	^aNI ^b(3.0%)	8%	^cNI ^d(0%)	^aNI ^b(0%)	^cNI ^d(0.6%)	^aNI ^b(43%)	^cNI ^d(8.3%)	0%	37.9%	−2.2%	41.1%	^cNI ^d(3.5%)	^aNI ^b(20.6%)	^cNI ^d(6.6%)	^aNI ^b(3.6%)	8.1%	inhibition at 100 µM ([2]; at 100 μM): 24.6%; IC50 [3, 16]: 588 µM; IC50 (α-D-glucosidase (rice); [16]): 106 µM; inhibition at 1000 µM (α-D-glucosidase (yeast)): 4.9%; inhibition % β-D-Galactosidase E. coli [13]: ^cNI ^d(4.9%); inhibition % β-D-Glucanase T. Longibrachiatum [14]: ^cNI ^d(1.2%); inhibition % β-D-Glucosidase Human Lysosome [15]: ^cNI ^d(13.6%)
CC1(C)O[C@H]2O[C@H]3[C@@H]([C@H]2O1)N(Cc1ccccc1B1OC(C)(C)C(C)(C)O1)C[C@H]3O [ortho 2, N-(2-Methylphenylboronic acid pinacol ester)-3,6-dideoxy-3,6-imino-1,2-O-isopropylidene-α-D-gulofuranose]	^cNI ^d(3.3%)	^cNI ^d(15.5%)	^cNI ^d(5.6%)	^aNI ^b(1.8%)	^aNI ^b(7.8%)	0%	^cNI ^d(9.4%)	^aNI ^b(1.3%)	^cNI ^d(35%)	^aNI ^b(7.2%)	^cNI ^d(1.5%)	4.9%	19.7%	13.8%	−6.7%	^cNI ^d(4.1%)	^aNI ^b(5.2%)	^cNI ^d(0%)	^aNI ^b(3.2%)	1%	inhibition at 1000 µM ([2]; at 1000 μM): 21.8%; inhibition % α-D-Glucosidase Rat Intestinal Maltase ([3]; at 1000 μM): ^aNI ^b(0%); inhibition at 1000 µM (α-D-glucosidase (rice); at 1000 μM): 0%; inhibition % α-L-Rhamnosidase P. decumbens ([7]; at 1000 μM): ^aNI ^b(2.0%); inhibition at 1000 µM (α-D-glucosidase (yeast)): 0%; inhibition % β-D-Galactosidase E. coli [13]: ^cNI ^d(8.8%); inhibition % β-D-Glucanase T. Longibrachiatum [14]: ^cNI ^d(21%); inhibition % β-D-Glucosidase Human Lysosome [15]: ^cNI ^d(5.6%)
